Laboratory results reported in article PMC11071649, “Synthesis and Selective Anticancer Activity Evaluation of 2-phenylacrylonitrile Derivatives as Tubulin Inhibitors” (Current Medicinal Chemistry, 2024).
Read-outs that look alike come from different tables or passages of the source.

Tests used:
[1] = system: HeLa cervical cancer cell; assay: MTT anti-proliferative assay, HeLa; type: cell-based, human; conditions: MTT, 48 h
Procedure, shortened: (§1)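 Anti-proliferative effect is measured with the MTT assay, which reports inhibition of net cell growth. Cells come from ATCC, are maintained in DMEM with FBS and are seeded into 96-well plates before treatment.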

[2] = system: Raji B lymphoblastoid cell; assay: MTT anti-proliferative assay, Raji; type: cell-based, human; conditions: for IC50: MTT, 48 h, read-out: IC50 Raji
Procedure, shortened: as §1

[3] = system: MCF-10A normal breast cell; assay: MTT assay, MCF-10A normal cells; type: cell-based, human; conditions: 48 h
Procedure, shortened: as §1

[4] = system: HepG2 hepatoma cell; assay: MTT anti-proliferative assay, HepG2; type: cell-based, human; conditions: MTT, 48 h, read-out: IC50 HepG-2
Procedure, shortened: as §1

[5] = system: MCF-7 breast cancer cell; assay: MTT anti-proliferative assay, MCF-7; type: cell-based, human; conditions: MTT, 48 h
Procedure, shortened: as §1

[6] = system: A549 lung cancer cell; assay: MTT anti-proliferative assay, A549; type: cell-based, human; conditions: MTT, 48 h
Procedure, shortened: as §1

[7] = system: MGC-803 late stage differentiation gastric cancer cell; assay: MTT anti-proliferative assay, MGC-803; type: cell-based, human; conditions: MTT, 48 h
Procedure, shortened: as §1

[8] = system: AGS gastric cancer cell; assay: MTT anti-proliferative assay, AGS; type: cell-based, human; conditions: MTT, 48 h
Procedure, shortened: as §1

[9] = system: HCT116 colectal cancer cell; assay: MTT anti-proliferative assay, HCT116; type: cell-based, human; conditions: MTT, 48 h
Procedure, shortened: as §1

[10] = system: diffuse large B-cell lymphoma SU-DHL-10 cell; assay: MTT anti-proliferative assay, SU-DHL-10; type: cell-based, human; conditions: for IC50: MTT, 48 h, read-out: IC50 SU-DHL-10
Procedure, shortened: as §1

[11] = system: BEL-7402 liver cancer cell; assay: MTT anti-proliferative assay, BEL-7402; type: cell-based, human; conditions: MTT, 48 h
Procedure, shortened: as §1

[12] = system: L-02 normal liver cell; assay: MTT assay, L-02 normal cells; type: cell-based, human; conditions: 48 h
Procedure, shortened: as §1

[13] = system: SGC-7901 early differentiation gastric cancer cell; assay: MTT anti-proliferative assay, SGC-7901; type: cell-based, human; conditions: MTT, 48 h
Procedure, shortened: as §1

Row | Structure (SMILES) | IC50 [1] [µM] | IC50 [2] [µM] | IC50 [3] [µM] | IC50 [4] [µM] | IC50 [5] [µM] | IC50 [6] [µM] | IC50 [7] [µM] | IC50 [8] [µM] | IC50 ([9]; read-out: IC50 HCT-116) [µM] | IC50 [10] [µM] | IC50 [11] [µM] | IC50 [12] [µM] | IC50 [13] [µM] | also measured
1 | COc1cc(-n2cc(/C=C(\C#N)c3ccc(OC(F)(F)F)cc3)nn2)cc(OC)c1OC [Compound 7c] | – | – | – | – | – | – | – | – | – | – | – | – | – | melting point: 170 to 172 °C; IC50 ([1]; Homo sapiens, HeLa): > 100 µM; IC50 ([2]; Homo sapiens, Raji): > 100 µM; IC50 ([3]; Homo sapiens, MCF-10A): > 100 µM; IC50 ([4]; Homo sapiens, HepG2): > 100 µM; IC50 ([5]; Homo sapiens, MCF7): > 100 µM; IC50 ([6]; Homo sapiens, A549): > 100 µM; IC50 ([7]; Homo sapiens, MGC-803): > 100 µM; IC50 ([8]; Homo sapiens): > 100 µM; IC50 ([9]; Homo sapiens, HCT-116): > 100 µM; IC50 ([10]; Homo sapiens, SU-DHL10): > 100 µM; IC50 ([11]; Homo sapiens, Bel-7402): > 100 µM; IC50 ([12]; Homo sapiens): > 100 µM; IC50 ([13]; Homo sapiens, SGC-7901): > 100 µM
2 | N#C/C(=C\c1cn(Cc2ccccc2)c2ccccc12)c1ccc(OC(F)(F)F)cc1 [Compound 9, (Z)-3-(1-benzyl-1H-indol-3-yl)-2-(4-(trifluoromethoxy)phenyl)acrylonitrile] | – | – | – | – | – | – | – | – | – | – | – | – | – | melting point: 118 to 120 °C; IC50 ([1]; Homo sapiens, HeLa): > 100 µM; IC50 ([2]; Homo sapiens, Raji): > 100 µM; IC50 ([3]; Homo sapiens, MCF-10A): > 100 µM; IC50 ([4]; Homo sapiens, HepG2): > 100 µM; IC50 ([5]; Homo sapiens, MCF7): > 100 µM; IC50 ([6]; Homo sapiens, A549): > 100 µM; IC50 ([7]; Homo sapiens, MGC-803): > 100 µM; IC50 ([8]; Homo sapiens): > 100 µM; IC50 ([9]; Homo sapiens, HCT-116): > 100 µM; IC50 ([10]; Homo sapiens, SU-DHL10): > 100 µM; IC50 ([11]; Homo sapiens, Bel-7402): > 100 µM; IC50 ([12]; Homo sapiens): > 100 µM; IC50 ([13]; Homo sapiens, SGC-7901): > 100 µM
3 | COc1cc(/C=C(\C#N)c2ccc(C(F)(F)F)cc2)cc(OC)c1OC [Compound 1f2u] | > 100 | > 100 | 92.5 ± 10.2 | > 100 | > 100 | > 100 | > 100 | > 100 | > 100 | > 100 | > 100 | > 100 | > 100 | –
4 | CCCCOc1ccc(/C=C(\C#N)c2ccc(OC(F)(F)F)cc2)cc1 [Compound 1a2n] | > 100 | > 100 | > 100 | > 100 | > 100 | > 100 | > 100 | > 100 | > 100 | > 100 | > 100 | > 100 | > 100 | –
5 | CCN(CC)c1ccc(/C=C(\C#N)c2ccc(OC)cc2)cc1 [Compound 1e2c] | > 100 | 19.3 ± 0.5 | > 100 | > 100 | > 100 | > 100 | > 100 | > 100 | > 100 | 62.3 ± 9.6 | > 100 | > 100 | > 100 | SI (selectivity index), IC50 (L-02)/IC50 (Raji) [2]: > 5.1; SI (selectivity index), IC50 (L-02)/IC50 (SU-DHL-10) [10]: > 1.6
6 | CCN(CC)c1ccc(/C=C(\C#N)c2ccc(OC(F)(F)F)cc2)cc1 [Compound 1a2i] | > 100 | 45.1 ± 15.6 | > 100 | > 100 | > 100 | > 100 | > 100 | > 100 | > 100 | > 100 | > 100 | > 100 | > 100 | SI (selectivity index), IC50 (L-02)/IC50 (Raji) [2]: > 2.2
7 | N#C/C(=C\c1ccco1)c1ccc(OC(F)(F)F)cc1 [Compound 1a3a] | > 100 | > 100 | > 100 | > 100 | > 100 | > 100 | > 100 | > 100 | > 100 | > 100 | > 100 | > 100 | > 100 | –
8 | N#C/C(=C\c1ccc(N2CCOCC2)cc1)c1ccc(OC(F)(F)F)cc1 [Compound 1a2s] | > 100 | > 100 | > 100 | > 100 | > 100 | > 100 | > 100 | > 100 | > 100 | > 100 | > 100 | > 100 | > 100 | –
